Assay results: patent publication US6399542B1, “Alkoxyimino-substituted bicyclic compounds compositions containing the same and method of making such compounds” (Agro-Kanesho Co., Ltd., priority 1997, dated 2002)
Where two headings read alike, the source gives them in different places.

What was measured:
Botrytis cinerea = assay: Effect on Cucumber gray mold (cotyledon paper disc test); assay type: in vivo; conditions: 3 days after inoculation
Puccinia recondita = assay: Effect on Wheat brown rust (preventive spray test); assay type: in vivo; conditions: 7 days after inoculation
Erysiphe graminis = assay: Effects on Barley powdery mildew (preventive spray test); assay type: in vivo; conditions: lesions counted seven days after inoculation
[1] = tested on: Psecidoperonospora cubensis; assay: Effect on Cucumber downy mildew (preventive spray test); assay type: in vivo; conditions: 7 days after inoculation
Rhizoctonia solani = assay: Effect on Rice sheath blight (preventive spray test); conditions: 10 days after inoculation
Description: An emulsion of a compound of the present invention prepared in Preparation Example 2 was diluted with water and uniformly sprayed on 5 rice plant seedlings (variety: Koshihikari) in 4.5-leaf stage in each plastic pot having a diameter of 6 cm, with a spray gun. One day after the spraying, the seedlings were bundled at the second sheath with a string. Colonies of Rhizoctonia solani previously cultured in PSA culture medium were bored with a cork borer to obtain pieces having a diameter of 4 mm. The piece was put in the bundle, and kept in a high-humidity room at 25° C. until the examination. Ten days after the inoculation, the degree of the disease was examined, and the preventive rate (effect of inhibiting the disease) was calculated on the basis of the following standard:
Preventive rate=[1-D′/C′]×100
C′: Severity in untreated section
D′: Severity in treated section.

Pyricularia oryzae = assay type: in vivo; conditions: Rice blast, 7 days after inoculation
Phytophthora infestans = assay type: in vivo; conditions: Tomato late blight, 5 days after inoculation
Chochliobolus miyabeanus = assay: Effect on Rice brown spot (preventive spray test); assay type: in vivo; conditions: 7 days after inoculation
[2] = conc. of active ingredient 20 ppm
[3] = conc. of active ingredient 100 ppm
[4] = conc. of active ingredient 4 ppm

Structure (SMILES): CNC(=O)C(OC)c1ccccc1COc1ccc2c(c1)OCC2=NOC (racemic) [a-11]
- Preventive rate (%) (Botrytis cinerea; [2]): 40%
- Preventive rate (%) (Botrytis cinerea; [3]): 87%
- Preventive rate (%) (Puccinia recondita; [2]): 88%
- Preventive rate (%) (Puccinia recondita; [3]): 100%
- Preventive rate (%) (Erysiphe graminis; [2]): 88%
- Preventive rate (%) (Erysiphe graminis; [3]): 100%

Structure (SMILES): CNC(=O)C(=NOC)c1ccccc1COc1ccc2c(c1C)OC(C)CC2=NOC (racemic) [d-11]
- Preventive rate (%) [1, 4]: 93%
- Preventive rate (%) [1, 2]: 96%
- Preventive rate (%) [1, 3]: 100%
- Preventive rate (%) (Rhizoctonia solani; [2]): 75%
- Preventive rate (%) (Rhizoctonia solani; [3]): 96%
- Preventive rate (%) (Puccinia recondita; [4]): 100%
- Preventive rate (%) (Puccinia recondita; [2]): 100%
- Preventive rate (%) (Puccinia recondita; [3]): 100%
- Preventive rate (%) (Erysiphe graminis; [2]): 99%
- Preventive rate (%) (Erysiphe graminis; [3]): 99%
- Preventive rate (%) (Pyricularia oryzae; [4]): 68%
- Preventive rate (%) (Pyricularia oryzae; [2]): 78%
- Preventive rate (%) (Pyricularia oryzae; [3]): 95%

Structure (SMILES): COC=C(C(=O)OC)c1ccccc1COc1ccc2c(c1C)OCC2=NOC [a-13]
- Preventive rate (%) [1, 2]: 96%
- Preventive rate (%) [1, 3]: 100%
- Preventive rate (%) (Rhizoctonia solani; [2]): 97%
- Preventive rate (%) (Rhizoctonia solani; [3]): 97%
- Preventive rate (%) (Botrytis cinerea; [2]): 96%
- Preventive rate (%) (Botrytis cinerea; [3]): 100%
- Preventive rate (%) (Phytophthora infestans; [2]): 100%
- Preventive rate (%) (Phytophthora infestans; [3]): 100%
- Preventive rate (%) (Erysiphe graminis; [4]): 100%
- Preventive rate (%) (Erysiphe graminis; [2]): 100%
- Preventive rate (%) (Erysiphe graminis; [3]): 100%
- Preventive rate (%) (Chochliobolus miyabeanus; [2]): 88%
- Preventive rate (%) (Chochliobolus miyabeanus; [3]): 96%

Structure (SMILES): CON=C1COc2c1ccc(OCc1ccccc1/C(=N\OC)C(=O)OC)c2C [a-15]
- Preventive rate (%) (Botrytis cinerea; [2]): 73%
- Preventive rate (%) (Botrytis cinerea; [3]): 96%
- Preventive rate (%) (Puccinia recondita; [4]): 96%
- Preventive rate (%) (Puccinia recondita; [2]): 96%
- Preventive rate (%) (Puccinia recondita; [3]): 100%
- Preventive rate (%) (Phytophthora infestans; [2]): 81%
- Preventive rate (%) (Phytophthora infestans; [3]): 94%

Structure (SMILES): CON=C1COc2cc(OCc3ccccc3/C(=N\OC)C(=O)OC)c(C)cc21 [a-26]
- Preventive rate (%) [1, 2]: 100%
- Preventive rate (%) [1, 3]: 100%
- Preventive rate (%) (Botrytis cinerea; [2]): 72%
- Preventive rate (%) (Botrytis cinerea; [3]): 87%
- Preventive rate (%) (Puccinia recondita; [4]): 100%
- Preventive rate (%) (Puccinia recondita; [2]): 100%
- Preventive rate (%) (Puccinia recondita; [3]): 100%
- Preventive rate (%) (Phytophthora infestans; [2]): 81%
- Preventive rate (%) (Phytophthora infestans; [3]): 100%

Structure (SMILES): CCON=C1COc2c1ccc(OCc1ccccc1/C(=N\OC)C(=O)OC)c2C [a-35]
- Preventive rate (%) (Rhizoctonia solani; [2]): 80%
- Preventive rate (%) (Rhizoctonia solani; [3]): 84%
- Preventive rate (%) (Erysiphe graminis; [4]): 98%
- Preventive rate (%) (Erysiphe graminis; [2]): 100%
- Preventive rate (%) (Erysiphe graminis; [3]): 100%

Structure (SMILES): CNC(=O)/C(=N/OC)c1ccccc1COc1ccc2c(c1)OCC2=NOC(C)C [a-40]
- Preventive rate (%) [1, 2]: 97%
- Preventive rate (%) [1, 3]: 100%
- Preventive rate (%) (Botrytis cinerea; [2]): 100%
- Preventive rate (%) (Botrytis cinerea; [3]): 100%
- Preventive rate (%) (Puccinia recondita; [2]): 97%
- Preventive rate (%) (Puccinia recondita; [3]): 100%

Structure (SMILES): CCCON=C1COc2c1ccc(OCc1ccccc1/C(=N\OC)C(=O)NC)c2C [a-42]
- Preventive rate (%) [1, 4]: 100%
- Preventive rate (%) [1, 2]: 100%
- Preventive rate (%) [1, 3]: 100%
- Preventive rate (%) (Puccinia recondita; [4]): 100%
- Preventive rate (%) (Puccinia recondita; [2]): 100%
- Preventive rate (%) (Puccinia recondita; [3]): 100%
- Preventive rate (%) (Phytophthora infestans; [2]): 98%
- Preventive rate (%) (Phytophthora infestans; [3]): 98%
- Preventive rate (%) (Erysiphe graminis; [2]): 88%
- Preventive rate (%) (Erysiphe graminis; [3]): 100%
- Preventive rate (%) (Chochliobolus miyabeanus; [2]): 85%
- Preventive rate (%) (Chochliobolus miyabeanus; [3]): 91%
- Preventive rate (%) (Pyricularia oryzae; [2]): 90%
- Preventive rate (%) (Pyricularia oryzae; [3]): 98%

Structure (SMILES): C=CCON=C1COc2c1ccc(OCc1ccccc1/C(=N\OC)C(=O)OC)c2C [a-59]
- Preventive rate (%) (Rhizoctonia solani; [2]): 60%
- Preventive rate (%) (Rhizoctonia solani; [3]): 72%
- Preventive rate (%) (Botrytis cinerea; [2]): 73%
- Preventive rate (%) (Botrytis cinerea; [3]): 76%
- Preventive rate (%) (Puccinia recondita; [4]): 90%
- Preventive rate (%) (Puccinia recondita; [2]): 98%
- Preventive rate (%) (Puccinia recondita; [3]): 100%
- Preventive rate (%) (Erysiphe graminis; [2]): 92%
- Preventive rate (%) (Erysiphe graminis; [3]): 100%

Structure (SMILES): CO/N=C(/C(=O)OC)c1ccccc1COc1ccc2c(c1C)OCC2=NOC/C=C/Cl [a-61]
- Preventive rate (%) (Rhizoctonia solani; [2]): 60%
- Preventive rate (%) (Rhizoctonia solani; [3]): 96%
- Preventive rate (%) (Botrytis cinerea; [2]): 91%
- Preventive rate (%) (Botrytis cinerea; [3]): 85%
- Preventive rate (%) (Puccinia recondita; [4]): 91%
- Preventive rate (%) (Puccinia recondita; [2]): 100%
- Preventive rate (%) (Puccinia recondita; [3]): 100%
- Preventive rate (%) (Phytophthora infestans; [2]): 89%
- Preventive rate (%) (Phytophthora infestans; [3]): 91%
- Preventive rate (%) (Erysiphe graminis; [4]): 99%
- Preventive rate (%) (Erysiphe graminis; [2]): 100%
- Preventive rate (%) (Erysiphe graminis; [3]): 100%
- Preventive rate (%) (Chochliobolus miyabeanus; [4]): 49%
- Preventive rate (%) (Chochliobolus miyabeanus; [2]): 72%
- Preventive rate (%) (Chochliobolus miyabeanus; [3]): 91%
